Test results as given in ChEMBL document CHEMBL1147476, “Synthesis and evaluation of aminophosphinic acid derivatives as inhibitors of renal dipeptidase” (Bioorg Med Chem Lett, 2004).

Target: T1, Dipeptidase 1 (Homo sapiens, UniProt P16444)
T1 sequence (P16444 whole entry): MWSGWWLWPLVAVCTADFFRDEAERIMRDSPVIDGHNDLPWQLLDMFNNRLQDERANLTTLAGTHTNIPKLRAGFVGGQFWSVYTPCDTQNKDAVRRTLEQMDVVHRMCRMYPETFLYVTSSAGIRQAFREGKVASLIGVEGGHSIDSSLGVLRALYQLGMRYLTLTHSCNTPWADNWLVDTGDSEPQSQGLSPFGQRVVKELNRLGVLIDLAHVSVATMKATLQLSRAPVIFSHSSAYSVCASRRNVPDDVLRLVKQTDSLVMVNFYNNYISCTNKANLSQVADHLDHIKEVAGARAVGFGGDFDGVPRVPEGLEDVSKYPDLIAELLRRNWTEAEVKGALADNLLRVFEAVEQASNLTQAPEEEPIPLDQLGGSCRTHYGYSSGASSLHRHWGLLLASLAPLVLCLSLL
Assay: Concentration required to inhibit renal dipeptidase (RDP) by 50% in crude lysates prepared from human colon cancer

In order of rising IC50:
1. NC(CC1CCCCC1)P(=O)(O)C/C(=C\c1ccc(F)cc1)C(=O)O (centres undefined)  5 nM
2. NC(CC1CCCCC1)P(=O)(O)C/C(=C\c1ccc(Br)cc1)C(=O)O (centres undefined)  6 nM
3. NC(CC1CCCCC1)P(=O)(O)C/C(=C\c1ccc(I)cc1)C(=O)O (centres undefined)  8 nM
4. NC(CC1CCCCC1)P(=O)(O)C/C(=C/c1ccc(F)cc1)C(=O)O (centres undefined)  15 nM
5. NC(CC1CCCCC1)P(=O)(O)C/C(=C\c1ccc(Cl)c(Cl)c1)C(=O)O (centres undefined)  20 nM
6. NC(CC1CCCCC1)P(=O)(O)C/C(=C/c1ccc(I)cc1)C(=O)O (centres undefined)  25 nM
7. NC(CC1CCCCC1)P(=O)(O)C/C(=C/c1ccc(Br)cc1)C(=O)O (centres undefined)  30 nM
8. NC(CC1CCCCC1)P(=O)(O)C/C(=C\c1ccc(F)c(Cl)c1)C(=O)O (centres undefined)  30 nM
9. NC(CC1CCCCC1)P(=O)(O)C/C(=C\c1ccc(F)c(Br)c1)C(=O)O (centres undefined)  40 nM
10. NC(CC1CCCCC1)P(=O)(O)C/C(=C\c1cccc(I)c1)C(=O)O (centres undefined)  45 nM
11. Nc1ccc(/C=C(\CP(=O)(O)C(N)CC2CCCCC2)C(=O)O)cc1 (centres undefined)  70 nM
12. NC(CC1CCCCC1)P(=O)(O)C/C(=C\c1ccccc1I)C(=O)O (centres undefined)  100 nM
13. Nc1ccc(/C=C(/CP(=O)(O)C(N)CC2CCCCC2)C(=O)O)cc1 (centres undefined)  150 nM
14. NC(CC1CCCCC1)P(=O)(O)C/C(=C/c1ccc(Cl)c(Cl)c1)C(=O)O (centres undefined)  200 nM
15. NC(CC1CCCCC1)P(=O)(O)C/C(=C/c1ccc(C(F)(F)F)cc1)C(=O)O (centres undefined)  200 nM
16. NC(CC1CCCCC1)P(=O)(O)C/C(=C/c1cccc(I)c1)C(=O)O (centres undefined)  250 nM
17. NC(CC1CCCCC1)P(=O)(O)C/C(=C/c1ccc(F)c(Cl)c1)C(=O)O (centres undefined)  350 nM
18. NC(CC1CCCCC1)P(=O)(O)C/C(=C/c1ccccc1I)C(=O)O (centres undefined)  1000 nM
19. NC(CC1CCCCC1)P(=O)(O)C/C(=C/c1ccc(F)c(Br)c1)C(=O)O (centres undefined)  3000 nM
